# Data reported in PMC4384654 (ChemMedChem, 2014).
# Several values for one entry are separate records, joined by “and”; a condition that tells them apart may be missing. Equal entries are not always repeated. Where two headings read alike, the source gives them in different places.
# Key:
# [1] = target: T1, FAAH prepared from rat brain homogenates (Rattus norvegicus, UniProt P97612); assay: In vitro rat FAAH radiometric assay; format: biochemical; details: for IC50: read-out: r-FAAH IC50; for IC50 / % inhibition of FAAH activity at 100 μM: rat brain homogenate; for Increase in potency vs 34a: relative to 34a
# T1 sequence (P97612 1-579): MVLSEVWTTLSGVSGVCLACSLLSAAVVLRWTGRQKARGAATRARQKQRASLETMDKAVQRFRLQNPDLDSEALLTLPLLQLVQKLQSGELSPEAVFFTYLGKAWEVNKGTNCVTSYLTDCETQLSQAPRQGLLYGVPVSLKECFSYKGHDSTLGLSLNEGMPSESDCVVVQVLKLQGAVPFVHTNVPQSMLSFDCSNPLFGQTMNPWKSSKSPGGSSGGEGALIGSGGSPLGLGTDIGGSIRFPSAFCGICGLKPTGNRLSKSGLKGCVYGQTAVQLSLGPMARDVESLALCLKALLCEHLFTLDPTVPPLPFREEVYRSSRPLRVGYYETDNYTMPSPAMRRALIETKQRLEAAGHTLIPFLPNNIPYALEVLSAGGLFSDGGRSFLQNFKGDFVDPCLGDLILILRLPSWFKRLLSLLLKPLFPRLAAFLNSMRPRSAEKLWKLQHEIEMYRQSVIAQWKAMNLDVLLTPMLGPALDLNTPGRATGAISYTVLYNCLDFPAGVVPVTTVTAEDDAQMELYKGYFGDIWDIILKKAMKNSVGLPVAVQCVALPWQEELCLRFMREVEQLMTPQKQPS
# [2] = target: T2, human FAAH-1 (Homo sapiens, UniProt O00519); assay: In vitro human FAAH fluorescent assay; format: biochemical; details: h-FAAH-1 IC50 relative to r-FAAH IC50
# T2 sequence (O00519 1-579): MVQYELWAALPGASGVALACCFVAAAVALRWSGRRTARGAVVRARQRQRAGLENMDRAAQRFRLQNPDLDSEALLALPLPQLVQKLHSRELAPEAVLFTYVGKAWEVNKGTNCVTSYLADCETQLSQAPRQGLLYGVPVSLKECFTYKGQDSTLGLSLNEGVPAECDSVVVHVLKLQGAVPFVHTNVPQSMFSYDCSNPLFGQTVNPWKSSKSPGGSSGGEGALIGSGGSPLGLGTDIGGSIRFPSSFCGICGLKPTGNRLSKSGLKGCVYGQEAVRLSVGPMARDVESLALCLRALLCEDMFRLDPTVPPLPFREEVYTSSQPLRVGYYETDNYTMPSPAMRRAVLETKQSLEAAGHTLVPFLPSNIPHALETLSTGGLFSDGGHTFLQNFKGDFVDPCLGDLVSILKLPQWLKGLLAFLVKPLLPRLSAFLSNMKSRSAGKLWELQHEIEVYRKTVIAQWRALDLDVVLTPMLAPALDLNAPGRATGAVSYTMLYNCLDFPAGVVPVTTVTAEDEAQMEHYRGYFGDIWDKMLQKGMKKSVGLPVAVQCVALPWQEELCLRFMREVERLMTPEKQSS
SMILES,IC50 ([1]; mean ± SEM (n=3)),other results
"O=C(NC1CCCCC1)OCc1cccc(-c2ccccc2)c1 [Compound 4, (3-phenylphenyl)methyl N-cyclohexylcarbamate]",–,inhibition at 100 µM ([1]; read-out: % inhibition of FAAH activity at 100 μM): 65%
"O=C(NC1CCCCC1)OCc1cn(-c2ccccc2)nn1 [Compound 17, (1-phenyltriazol-4-yl)methyl N-cyclohexylcarbamate]",381 nM,–
"O=C(NC1CCCCC1)OCc1cn(Cc2ccccc2)nn1 [Compound 18, (1-benzyltriazol-4-yl)methyl N-cyclohexylcarbamate]",26 nM and 26.2 nM,"Less potent than 1a (URB524) ([1]; r-FAAH, relative to 1a): 4.6 fold; Increase in potency vs compound 17 ([1]; r-FAAH, relative to 17): ca. 15 fold"
"O=C(NC1CCCCC1)OCc1cn(CCc2ccccc2)nn1 [Compound 19, (1-phenethyltriazol-4-yl)methyl N-cyclohexylcarbamate]",833 ± 129 nM,–
"O=C(NC1CCCCC1)OCc1cn(C(c2ccccc2)c2ccccc2)nn1 [Compound 20, (1-benzhydryltriazol-4-yl)methyl N-cyclohexylcarbamate]",–,% inhibition of FAAH activity at 100 μM [1]: 73% @ 100 μM
"O=C(NC1CCCCC1)OCc1cn(Cc2ccc3ccccc3c2)nn1 [Compound 21, [1-(2-naphthylmethyl)triazol-4-yl]methyl N-cyclohexylcarbamate]",2000 ± 636 nM,IC50 [1]: 2000 nM
"N#Cc1ccccc1Cn1cc(COC(=O)NC2CCCCC2)nn1 [Compound 22a, [1-[(2-cyanophenyl)methyl]triazol-4-yl]methyl N-cyclohexylcarbamate]",19.5 ± 4.3 nM,–
"N#Cc1cccc(Cn2cc(COC(=O)NC3CCCCC3)nn2)c1 [Compound 22b, [1-[(3-cyanophenyl)methyl]triazol-4-yl]methyl N-cyclohexylcarbamate]",21.5 ± 7.9 nM,–
"N#Cc1ccc(Cn2cc(COC(=O)NC3CCCCC3)nn2)cc1 [Compound 22c, [1-[(4-cyanophenyl)methyl]triazol-4-yl]methyl N-cyclohexylcarbamate]",2280 ± 585 nM,–
"O=C(NC1CCCCC1)OCc1cn(Cc2ccccc2F)nn1 [Compound 23a, [1-[(2-fluorophenyl)methyl]triazol-4-yl]methyl N-cyclohexylcarbamate]",9.9 ± 1.9 nM,Loss of potency on h-FAAH-1 vs r-FAAH [2]: 62 fold
"O=C(NC1CCCCC1)OCc1cn(Cc2cccc(F)c2)nn1 [Compound 23b, [1-[(3-fluorophenyl)methyl]triazol-4-yl]methyl N-cyclohexylcarbamate]",12.1 ± 0.8 nM,–
"O=C(NC1CCCCC1)OCc1cn(Cc2ccc(F)cc2)nn1 [Compound 23c, [1-[(4-fluorophenyl)methyl]triazol-4-yl]methyl N-cyclohexylcarbamate]",95.5 ± 22.2 nM,–
"O=C(NC1CCCCC1)OCc1cn(Cc2c(F)cccc2F)nn1 [Compound 28, [1-[(2,6-difluorophenyl)methyl]triazol-4-yl]methyl N-cyclohexylcarbamate]",11.9 ± 1 nM,–
"O=C(NC1CCCCC1)OCc1cn(Cc2cc(F)cc(F)c2)nn1 [Compound 29, [1-[(3,5-difluorophenyl)methyl]triazol-4-yl]methyl N-cyclohexylcarbamate]",10.4 ± 2.6 nM,–
"COc1cccc(Cn2cc(COC(=O)NC3CCCCC3)nn2)c1F [Compound 30, [1-[(2-fluoro-3-methoxy-phenyl)methyl]triazol-4-yl]methyl N-cyclohexylcarbamate]",44.6 ± 10.3 nM,–
"O=C(NC1CCCCC1)OCCc1cn(-c2ccccc2)nn1 [Compound 32, 2-(1-phenyltriazol-4-yl)ethyl N-cyclohexylcarbamate]",1280 ± 84 nM,"Decrease in potency vs compound 17 ([1]; r-FAAH, relative to 17): ca. 3 fold"
"O=C(NC1CCCCC1)OCCc1cn(Cc2ccccc2)nn1 [Compound 33, 2-(1-benzyltriazol-4-yl)ethyl N-cyclohexylcarbamate]",2540 ± 106 nM,–
"COc1cccc(Cn2cc(CNC(=O)OCc3cn(Cc4ccccc4OC)nn3)nn2)c1 [Compound 37, [1-[(2-methoxyphenyl)methyl]triazol-4-yl]methyl N-[[1-[(3-methoxyphenyl)methyl]triazol-4-yl]methyl]carbamate]",3.2 ± 1.2 nM,Loss of potency on h-FAAH-1 vs r-FAAH [2]: 4 to 10 fold; Increase in potency vs 34a ([1]; r-FAAH): 48 fold
"COc1ccc(Cn2cc(CNC(=O)OCc3cn(Cc4ccccc4OC)nn3)nn2)cc1 [Compound 38, [1-[(2-methoxyphenyl)methyl]triazol-4-yl]methyl N-[[1-[(4-methoxyphenyl)methyl]triazol-4-yl]methyl]carbamate]",7.6 ± 0.6 nM,Loss of potency on h-FAAH-1 vs r-FAAH [2]: 4 to 10 fold
"COc1cccc(Cn2cc(COC(=O)NCc3cn(Cc4ccccc4OC)nn3)nn2)c1 [Compound 39, [1-[(3-methoxyphenyl)methyl]triazol-4-yl]methyl N-[[1-[(2-methoxyphenyl)methyl]triazol-4-yl]methyl]carbamate]",9.8 ± 0.4 nM,Loss of potency on h-FAAH-1 vs r-FAAH [2]: 4 to 10 fold; Increase in potency vs 34a ([1]; r-FAAH): ca. 15 fold
O=C(NC1CCCCC1)OCc1ncn(-c2ccccc2)n1 [Compound 43],–,% inhibition of FAAH activity at 100 μM [1]: 70% @ 100 μM
O=C(NC1CCCCC1)OCc1ncn(Cc2ccccc2)n1 [Compound 46],51500 ± 1120 nM,–

# Second part, led by results:
IC50 ([1]; mean ± SEM (n=3)),SMILES,other results
6.2 ± 1.3 nM,"O=C(NC1CCCCC1)OCc1cn(Cc2ccccc2Cl)nn1 [Compound 24a, [1-[(2-chlorophenyl)methyl]triazol-4-yl]methyl N-cyclohexylcarbamate]",Loss of potency on h-FAAH-1 vs r-FAAH [2]: 172 fold
13.2 ± 2.8 nM,"O=C(NC1CCCCC1)OCc1cn(Cc2cccc(Cl)c2)nn1 [Compound 24b, [1-[(3-chlorophenyl)methyl]triazol-4-yl]methyl N-cyclohexylcarbamate]",–
215 ± 31 nM,"O=C(NC1CCCCC1)OCc1cn(Cc2ccc(Cl)cc2)nn1 [Compound 24c, [1-[(4-chlorophenyl)methyl]triazol-4-yl]methyl N-cyclohexylcarbamate]",–
21.5 ± 1.2 nM,"Cc1ccccc1Cn1cc(COC(=O)NC2CCCCC2)nn1 [Compound 25a, [1-(o-tolylmethyl)triazol-4-yl]methyl N-cyclohexylcarbamate]",–
24.5 ± 6.2 nM,"Cc1cccc(Cn2cc(COC(=O)NC3CCCCC3)nn2)c1 [Compound 25b, [1-(m-tolylmethyl)triazol-4-yl]methyl N-cyclohexylcarbamate]",–
500 ± 44 nM,"Cc1ccc(Cn2cc(COC(=O)NC3CCCCC3)nn2)cc1 [Compound 25c, [1-(p-tolylmethyl)triazol-4-yl]methyl N-cyclohexylcarbamate]",–
1.4 ± 0.2 nM,"COc1ccccc1Cn1cc(COC(=O)NC2CCCCC2)nn1 [Compound 26a, [1-[(2-methoxyphenyl)methyl]triazol-4-yl]methyl N-cyclohexylcarbamate]",Loss of potency on h-FAAH-1 vs r-FAAH [2]: 240 fold
11.8 ± 3.7 nM,"COc1cccc(Cn2cc(COC(=O)NC3CCCCC3)nn2)c1 [Compound 26b, [1-[(3-methoxyphenyl)methyl]triazol-4-yl]methyl N-cyclohexylcarbamate]",–
627 ± 173 nM,"COc1ccc(Cn2cc(COC(=O)NC3CCCCC3)nn2)cc1 [Compound 26c, [1-[(4-methoxyphenyl)methyl]triazol-4-yl]methyl N-cyclohexylcarbamate]",–
154 ± 14 nM,"COc1ccccc1Cn1cc(CNC(=O)OCc2cn(Cc3ccccc3OC)nn2)nn1 [Compound 34a, [1-[(2-methoxyphenyl)methyl]triazol-4-yl]methyl N-[[1-[(2-methoxyphenyl)methyl]triazol-4-yl]methyl]carbamate]",–
